# Reference: patent publication US5627143A, “Wellbore fluid” (Dowell Schlumberger Incorporated, priority 1993, dated 1997)
# Like-named read-outs stand apart in the source and are kept apart here.
# Assays:
# Assay type in all cases: physicochemical
# [1] = Example 5: visible fluorescence under ultraviolet illumination
# Excerpt: A sample of C14-16 linear alphaolefin was placed under ultraviolet illumination and its visible fluorescence noted. The fluorescence was compared to that of some other known base oils.
# [2] = Kinematic viscosity (KV) of base oils
# Excerpt: KV: The kinematic viscosity of an oil in centistokes.
# (§1) Some properties of alk-1-enes of carbon number between 12 and 20 are shown in Table 1 (which appears at the end of this description) and compared with an ester oil, a linear alkyl benzene, and a polyalphaolefin.
# [3] = Pour point of base oils
# Excerpt: as §1
# [4] = Flash point of base oils
# Excerpt: as §1
SMILES,Fluorescence (colour) ([1]; continued lines of the cell),Fluorescence (intensity) ([1]; first printed line of the cell),KV at 40° C. ([2]; 40° C.) [Cst],KV at 40° C. [2] [Cst],Pour Point [3],Flash Point [4] [°C]
C=CCCCCCCCCCC [C12],–,–,–,1.29,-35 °C,77
C=CCCCCCCCCCCCCCC [C16],–,–,–,2.62,+4 °C,–

# More lines, main results first:
Fluorescence (colour) ([1]; continued lines of the cell),Fluorescence (intensity) ([1]; first printed line of the cell),KV at 40° C. ([2]; 40° C.) [Cst],SMILES,KV at 40° C. [2] [Cst],Pour Point [3],Flash Point [4] [°C]
white,Medium,–,CCCCCCCC/C=C\CCCCCCCC(=O)OCC(CC)CCCC (stereo not drawn) [2-ethylhexyl oleate],–,–,–
–,–,1.85,C=CCCCCCCCCCCCC [C14],–,-13 °C,107
–,–,3.59,C=CCCCCCCCCCCCCCCCC [C18],–,+18 °C,–
